In one assay the target is Mcl-1 protein (UniProtKB primary accession number: Q07820) (Homo sapiens, UniProt Q07820). Kind of assay: Inhibition of Mcl-1 by fluorescence polarisation, Method 1. To be noted: read-out: IC50 (M) Mcl-1 FP. It is filed as binding. In short, it runs like this: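 Buffer of 10 mM HEPES pH 7.4 with 150 mM NaCl and 0.05% Tween 20 held 5 nM Mcl-1 and 1 nM fluorescein-tagged ligand (final). Compounds were tested as 11-point serial dilutions at 5% final DMSO, and binding was read by FP.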
Chain of Mcl-1 protein (Q07820 whole entry): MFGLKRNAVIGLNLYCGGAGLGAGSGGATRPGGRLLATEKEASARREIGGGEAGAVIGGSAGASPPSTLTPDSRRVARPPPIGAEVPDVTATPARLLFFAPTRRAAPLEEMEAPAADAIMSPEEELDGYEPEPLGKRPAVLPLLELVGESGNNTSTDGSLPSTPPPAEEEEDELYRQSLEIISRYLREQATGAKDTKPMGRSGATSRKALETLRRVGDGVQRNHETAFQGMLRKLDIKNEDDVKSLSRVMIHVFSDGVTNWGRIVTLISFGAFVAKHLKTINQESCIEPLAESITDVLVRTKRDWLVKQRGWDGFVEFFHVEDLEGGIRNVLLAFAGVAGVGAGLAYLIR
For orientation: Fluorescence polarisation rises when a labelled molecule tumbles more slowly, as on binding a larger partner.

The test system of assay [1] is H929 multiple myeloma tumour line. Description: In vitro cytotoxicity, Microculture Tetrazolium Assay. Format: cell-based. To be noted: H929 cells, 48 hours exposure, MTT, read-out: IC50 (μM) MTT H929. As to the method:
The cytotoxicity studies were carried out on the H929 multiple myeloma tumour line.
The cells are distributed onto microplates and exposed to the test compounds for 48 hours.

Setting [2] is: fluorescence polarisation test, Method 2 values are underlined in the patent (underlining not visible here).
Setting [3] is: fluorescence polarisation, Method 1, or Method 2.

The structures appear in SMILES notation. Where two headings read alike, the source gives them in different places.

For 18 compounds, IC50 results are on record in patent US9670227B2, “Thienopyrimidine derivatives, a process for their preparation and pharmaceutical compositions containing them” (LES LABORATOIRES SERVIER, priority 2013, dated 2017).

Take `Cc1nccc(COc2ccccc2CC(Oc2ncnc3sc(-c4ccco4)c(-c4ccc(OCCN5CCN(C)CC5)c(Cl)c4C)c23)C(=O)O)n1` [Example 247, (2R)-2-{[(5Sa)-5-{3-chloro-2-methyl-4-[2-(4-methylpiperazin-1-yl)ethoxy]phenyl}-6-(furan-2-yl)thieno[2,3-d]pyrimidin-4-yl]oxy}-3-{2-[(2-methylpyrimidin-4-yl)methoxy]phenyl}propanoic acid]: the IC50 – broadly, the midpoint of a concentration-inhibition curve – on Mcl-1 protein (setting [2]) came out at 8e-09 M; in assay [1] (Homo sapiens, NCI-H929, 48 h), 0.022 µM.
As to `Cc1c(-c2c(-c3ccc(F)cc3)sc3ncnc(OC(Cc4ccccc4OCc4cnccn4)C(=O)O)c23)ccc(OCC2CCN(C)C2)c1Cl` [Example 139, (2R)-2-{[(5Sa)-5-(3-chloro-2-methyl-4-{[(3R)-1-methylpyrrolidin-3-yl]methoxy}phenyl)-6-(4-fluorophenyl)thieno[2,3-d]pyrimidin-4-yl]oxy}-3-[2-(pyrazin-2-ylmethoxy)phenyl]propanoic acid], the IC50 on Mcl-1 protein (setting [2]) stood at 8.5e-08 M; in assay [1], 0.636 µM.
Regarding `Cc1c(-c2c(-c3ccco3)sc3ncnc(OC(Cc4ccccc4OC(C)c4ccncc4)C(=O)O)c23)ccc(OCCN2CCN(C)CC2)c1Cl` [Example 208, (2R)-2-{[(5Sa)-5-{3-chloro-2-methyl-4-[2-(4-methylpiperazin-1-yl)ethoxy]phenyl}-6-(furan-2-yl)thieno[2,3-d]pyrimidin-4-yl]oxy}-3-{2-[(1R)-1-(pyridin-4-yl)ethoxy]phenyl}propanoic acid], the IC50 on Mcl-1 protein (setting [2]) came out at 5.5e-09 M; in assay [1] (Homo sapiens, NCI-H929, 48 h) it was 0.571 µM.
Consider `CCc1sc2ncnc(OC(Cc3ccccc3)C(=O)O)c2c1-c1ccc(OCCn2ccnc2)c(Cl)c1C` [Example 418, (2R)-2-[((5Sa)-5-{3-chloro-4-[2-(1H-imidazol-1-yl)ethoxy]-2-methylphenyl}-6-ethylthieno[2,3-d]pyrimidin-4-yl)oxy]-3-phenylpropanoic acid], for which the IC50 on Mcl-1 protein (setting [3]) turned out to be 5.6e-08 M; in assay [1] (Homo sapiens, NCI-H929, 48 h) it was 13.3 µM.
`Cc1c(-c2c(-c3ccc(F)cc3)sc3ncnc(OC(Cc4ccccc4OCc4cnccn4)C(=O)O)c23)ccc(OC2CCCN(C)C2)c1Cl` (single isomer, unassigned) [Example 141, (2R)-2-{[(5Sa)-5-{3-chloro-2-methyl-4-[((3S or R)-1-methylpiperidin-3-yl)oxy]phenyl}-6-(4-fluorophenyl)thieno[2,3-d]pyrimidin-4-yl]oxy}-3-[2-(pyrazin-2-ylmethoxy)phenyl]propanoic acid]: the IC50 is 3.1e-08 M on Mcl-1 protein (setting [2]) and 0.27 µM in assay [1].
`Cc1c(-c2c(-c3ccco3)sc3ncnc(OC(Cc4ccccc4OCc4ccnn4-c4ccccc4)C(=O)O)c23)ccc(OCCN2CCN(C)CC2)c1Cl` [Example 263, (2R)-2-{[(5Sa)-5-{3-chloro-2-methyl-4-[2-(4-methylpiperazin-1-yl)ethoxy]phenyl}-6-(furan-2-yl)thieno[2,3-d]pyrimidin-4-yl]oxy}-3-{2-[(1-phenyl-1H-pyrazol-5-yl)methoxy]phenyl}propanoic acid]: the IC50 stood at 2e-09 M on Mcl-1 protein (setting [2]) and 0.126 µM in assay [1] (Homo sapiens, NCI-H929, 48 h).
On to `CCCCn1nccc1COc1ccccc1CC(Oc1ncnc2sc(CCCOC)c(-c3ccc(OCCN4CCN(C)CC4)c(Cl)c3C)c12)C(=O)O` [Example 617, (2R)-3-{2-[(1-butyl-1H-pyrazol-5-yl)methoxy]phenyl}-2-{[(5Sa)-5-{3-chloro-2-methyl-4-[2-(4-methylpiperazin-1-yl)ethoxy]phenyl}-6-(3-methoxypropyl)thieno[2,3-d]pyrimidin-4-yl]oxy}propanoic acid], for which the IC50 stood at 5.4e-09 M on Mcl-1 protein (setting [3]) and 0.277 µM in assay [1] (Homo sapiens, NCI-H929, 48 h).
For `CCOc1cccc(COc2ccccc2CC(Oc2ncnc3sc(-c4ccc(F)cc4)c(-c4ccc(OCCN5CCN(C)CC5)c(Cl)c4C)c23)C(=O)O)n1` [Example 13, (2R)-2-{[(5Sa)-5-{3-chloro-2-methyl-4-[2-(4-methylpiperazin-1-yl)ethoxy]phenyl}-6-(4-fluorophenyl)thieno[2,3-d]pyrimidin-4-yl]oxy}-3-{2-[(6-ethoxypyridin-2-yl)methoxy]phenyl}propanoic acid], the IC50 on Mcl-1 protein (setting [2]) was 2.2e-08 M; in assay [1] (Homo sapiens, NCI-H929, 48 h), 0.146 µM.
On the same counts, the results for `Cc1c(-c2c(-c3ccco3)sc3ncnc(OC(Cc4ccccc4OCc4cccnn4)C(=O)O)c23)ccc(OCCN2CCN(C)CC2)c1Cl` [Example 243, (2R)-2-{[(5Sa)-5-{3-chloro-2-methyl-4-[2-(4-methylpiperazin-1-yl)ethoxy]phenyl}-6-(furan-2-yl)thieno[2,3-d]pyrimidin-4-yl]oxy}-3-[2-(pyridazin-3-ylmethoxy)phenyl]propanoic acid] are 5.6e-09 M and 0.211 µM.
As to `Cc1c(-c2c(-c3ccc(OCc4ccn(C)n4)cc3)sc3ncnc(OC(Cc4ccccc4OCc4ccnn4CC(F)(F)F)C(=O)O)c23)ccc(OCCN2CCN(C)CC2)c1Cl` [Example 779, (2R)-2-[((5Sa)-5-{3-chloro-2-methyl-4-[2-(4-methylpiperazin-1-yl)ethoxy]phenyl}-6-{4-[(1-methyl-1H-pyrazol-3-yl)methoxy]phenyl}thieno[2,3-d]pyrimidin-4-yl)oxy]-3-(2-{[1-(2,2,2-trifluoroethyl)-1H-pyrazol-5-yl]methoxy}phenyl)propanoic acid], the IC50 on Mcl-1 protein (setting [3]) was determined as 1.86e-09 M; in assay [1] (Homo sapiens, NCI-H929, 48 h), 0.056 µM.
With `CCCCn1nccc1COc1ccccc1CC(Oc1ncnc2sc(-c3ccc(C#N)cc3)c(-c3ccc(OCCN4CCN(C)CC4)c(Cl)c3C)c12)C(=O)O` [Example 600, (2R)-3-{2-[(1-butyl-1H-pyrazol-5-yl)methoxy]phenyl}-2-{[(5Sa)-5-{3-chloro-2-methyl-4-[2-(4-methylpiperazin-1-yl)ethoxy]phenyl}-6-(4-cyanophenyl)thieno[2,3-d]pyrimidin-4-yl]oxy}propanoic acid], the IC50 was determined as 4.1e-09 M at Mcl-1 protein (setting [3]) and 0.031 µM in assay [1] (Homo sapiens, NCI-H929, 48 h).
Take `Cc1c(-c2c(-c3ccco3)sc3ncnc(OC(Cc4ccccc4OCC4CC4)C(=O)O)c23)ccc(OCCN2CCN(C)CC2)c1Cl` [Example 229, (2R)-2-{[(5Sa)-5-{3-chloro-2-methyl-4-[2-(4-methylpiperazin-1-yl)ethoxy]phenyl}-6-(furan-2-yl)thieno[2,3-d]pyrimidin-4-yl]oxy}-3-[2-(cyclopropylmethoxy)phenyl]propanoic acid]: the IC50 at Mcl-1 protein (setting [2]) came out at 4.5e-09 M; in assay [1] (Homo sapiens, NCI-H929, 48 h), 0.134 µM.
On the same counts, the results for `CCOCCOc1nccc(COc2ccccc2CC(Oc2ncnc3sc(-c4ccc(F)cc4)c(-c4ccc(OCCN5CCN(C)CC5)c(Cl)c4C)c23)C(=O)O)n1` [Example 64, (2R)-2-{[(5Sa)-5-{3-chloro-2-methyl-4-[2-(4-methylpiperazin-1-yl)ethoxy]phenyl}-6-(4-fluorophenyl)thieno[2,3-d]pyrimidin-4-yl]oxy}-3-(2-{[2-(2-ethoxyethoxy)pyrimidin-4-yl]methoxy}phenyl)propanoic acid] are 4.4e-09 M and 0.018 µM.
As to `CCCCn1nccc1COc1ccccc1CC(Oc1ncnc2sc(-c3ccc(NCCOC)nc3)c(-c3ccc(OCCN4CCN(C)CC4)c(Cl)c3C)c12)C(=O)O` [Example 620, (2R)-3-{2-[(1-butyl-1H-pyrazol-5-yl)methoxy]phenyl}-2-[((5Sa)-5-{3-chloro-2-methyl-4-[2-(4-methylpiperazin-1-yl)ethoxy]phenyl}-6-{6-[(2-methoxyethyl)amino]pyridin-3-yl}thieno[2,3-d]pyrimidin-4-yl)oxy]propanoic acid], the IC50 at Mcl-1 protein (setting [3]) amounted to 5.9e-09 M; in assay [1] (Homo sapiens, NCI-H929, 48 h), 0.532 µM.
As to `Cc1c(-c2c(-c3ccc(F)cc3)sc3ncnc(OC(Cc4ccccc4OCc4ccnc(CC(C)C)n4)C(=O)O)c23)ccc(OCCN2CCN(C)CC2)c1Cl` [Example 38, (2R)-2-{[(5Sa)-5-{3-chloro-2-methyl-4-[2-(4-methylpiperazin-1-yl)ethoxy]phenyl}-6-(4-fluorophenyl)thieno[2,3-d]pyrimidin-4-yl]oxy}-3-(2-{[2-(2-methylpropyl)pyrimidin-4-yl]methoxy}phenyl)propanoic acid], the IC50 was 1.9e-09 M on Mcl-1 protein (setting [2]) and 0.016 µM in assay [1] (Homo sapiens, NCI-H929, 48 h).
Regarding `COc1ccccc1-c1nccc(COc2ccccc2CC(Oc2ncnc3sc(-c4ccc(OCc5ccsc5)cc4)c(-c4ccc(OCCN5CCN(C)CC5)c(Cl)c4C)c23)C(=O)O)n1` [Example 778, (2R)-2-[((5Sa)-5-{3-chloro-2-methyl-4-[2-(4-methylpiperazin-1-yl)ethoxy]phenyl}-6-[4-(thiophen-3-ylmethoxy)phenyl]thieno[2,3-d]pyrimidin-4-yl)oxy]-3-(2-{[2-(2-methoxyphenyl)pyrimidin-4-yl]methoxy}phenyl)propanoic acid], the IC50 worked out at 1.09e-09 M at Mcl-1 protein (setting [3]) and 0.013 µM in assay [1] (Homo sapiens, NCI-H929, 48 h).
As for `Cc1c(-c2c(-c3ccc(F)cc3)sc3ncnc(OC(Cc4ccccc4OCc4cnccn4)C(=O)O)c23)ccc(OC2CCCN(C)C2)c1Cl` (single isomer, unassigned) [Example 142, (2R)-2-{[(5Sa)-5-{3-chloro-2-methyl-4-[((3R or S)-1-methylpiperidin-3-yl)oxy]phenyl}-6-(4-fluorophenyl)thieno[2,3-d]pyrimidin-4-yl]oxy}-3-[2-(pyrazin-2-ylmethoxy)phenyl]propanoic acid], the results for the IC50 (on Mcl-1 protein (setting [2]); in assay [1]) were 4.2e-08 M and 1.67 µM, respectively.
In the case of `CCc1sc2ncnc(OC(Cc3ccccc3)C(=O)O)c2c1-c1ccc(OCCN2CCOCC2)c(Cl)c1C` [Example 420, (2R)-2-[((5Sa)-5-{3-chloro-2-methyl-4-[2-(morpholin-4-yl)ethoxy]phenyl}-6-ethylthieno[2,3-d]pyrimidin-4-yl)oxy]-3-phenylpropanoic acid], the IC50 on Mcl-1 protein (setting [3]) is 4e-08 M; in assay [1] (Homo sapiens, NCI-H929, 48 h), 15.6 µM.
